Experimental data from PubChem BioAssay AID248 (DTP/NCI, 2004).
Toxic doses and inconclusive results are not listed. Cut-off read from the data, not from the text of the source: active = T/C of 150% or more; inactive = T/C below 125%.

Test system: L1210 leukemia ip in BDF1 mice, survival T/C
Assay: NCI In Vivo Anticancer Drug Screen. Data for tumor model L1210 Leukemia (intraperitoneal) in B6D2F1 (BDF1) mice
Conditions: endpoint: mean survival time, higher = longer survival
How it was run: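 Transplanted-tumor mice were given test agent; controls received vehicle only. Survival readings from the two groups were divided (treated over control).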

[1] = dose: 12.5 mg/kg/injection, schedule: Q01DX009 (ip), vehicle: saline with Tween-80
[2] = dose: 25.0 mg/kg/injection, schedule: Q01DX009 (ip), vehicle: saline with Tween-80
[3] = dose: 50.0 mg/kg/injection, schedule: Q01DX009 (ip), vehicle: saline with Tween-80
[4] = dose: 12.5 mg/kg/injection, schedule: Q04DX003 (ip), vehicle: saline
[5] = dose: 25.0 mg/kg/injection, schedule: Q04DX003 (ip), vehicle: saline
[6] = dose: 50.0 mg/kg/injection, schedule: Q04DX003 (ip), vehicle: saline
[7] = dose: 100.0 mg/kg/injection, schedule: Q04DX003 (ip), vehicle: saline
[8] = dose: 200.0 mg/kg/injection, schedule: Q04DX003 (ip), vehicle: saline
[9] = dose: 400.0 mg/kg/injection, schedule: Q04DX003 (ip), vehicle: saline
[10] = dose: 100.0 mg/kg/injection, schedule: Q01DX009 (ip), vehicle: Klucel (hydroxypropylcellulose) (HPC)
[11] = dose: 200.0 mg/kg/injection, schedule: Q01DX009 (ip), vehicle: Klucel (hydroxypropylcellulose) (HPC)
[12] = dose: 400.0 mg/kg/injection, schedule: Q01DX009 (ip), vehicle: Klucel (hydroxypropylcellulose) (HPC)
[13] = dose: 100.0 mg/kg/injection, schedule: Q04DX002 (ip), vehicle: Klucel (hydroxypropylcellulose) (HPC)
[14] = dose: 200.0 mg/kg/injection, schedule: Q04DX002 (ip), vehicle: Klucel (hydroxypropylcellulose) (HPC)
[15] = dose: 400.0 mg/kg/injection, schedule: Q04DX002 (ip), vehicle: Klucel (hydroxypropylcellulose) (HPC)
[16] = dose: 100.0 mg/kg/injection, schedule: Q01DX001 (ip), vehicle: saline
[17] = dose: 200.0 mg/kg/injection, schedule: Q01DX001 (ip), vehicle: saline
[18] = dose: 5.0 mg/kg/injection, schedule: Q01DX001 (ip), vehicle: saline
[19] = dose: 10.0 mg/kg/injection, schedule: Q01DX001 (ip), vehicle: saline
[20] = dose: 20.0 mg/kg/injection, schedule: Q01DX001 (ip), vehicle: saline
[21] = dose: 40.0 mg/kg/injection, schedule: Q01DX001 (ip), vehicle: saline
[22] = dose: 100.0 mg/kg/injection, schedule: Q01DX009 (ip), vehicle: saline with Tween-80
[23] = dose: 200.0 mg/kg/injection, schedule: Q01DX009 (ip), vehicle: saline with Tween-80

Measured: T/C

CCN(CC)CCCC(C)Nc1cc(C)nc2ccc(N(C)C)cc12 (centres undefined)
inactive: [1] 104 % of control | [2] 111 % of control | [3] 106 % of control

CCC(C)C(CCN1CCCCC1)(CNC(=O)CN(CC)CC)Cc1cccc2ccccc12 (centres undefined)
inactive: [4] 101 % of control | [5] 103 % of control | [6] 98 % of control

O=C1CCCN1
inactive: [7] 92 % of control | [8] 97 % of control | [9] 92 % of control

O=C(c1ccccc1)c1c2ccccc2c(Br)c2ccccc12
inactive: [10] 97 % of control | dose: 100.0 mg/kg/injection, schedule: Q04DX003 (ip), vehicle: Klucel (hydroxypropylcellulose) (HPC) 100 % of control | [11] 96 % of control | dose: 200.0 mg/kg/injection, schedule: Q04DX003 (ip), vehicle: Klucel (hydroxypropylcellulose) (HPC) 95 % of control | [12] 91 % of control | dose: 400.0 mg/kg/injection, schedule: Q04DX003 (ip), vehicle: Klucel (hydroxypropylcellulose) (HPC) 89 % of control

CC(C)OC(=O)N1CCN(C(=O)OC(C)C)CC1
inactive: [10] 97 % of control | [13] 93 % of control | [11] 94 % of control | [14] 93 % of control | [12] 102 % of control | [15] 117 % of control

Cc1ccc(Nc2ccc([N+](=O)[O-])cc2)cc1
inactive: dose: 100.0 mg/kg/injection, schedule: Q01DX001 (ip), vehicle: gum acacia 93 % of control | dose: 200.0 mg/kg/injection, schedule: Q01DX001 (ip), vehicle: gum acacia 100 % of control

CNNP1(=O)OCC(C)([N+](=O)[O-])CO1 (centres undefined)
inactive: [16] 101 % of control | [17] 101 % of control

N#CC(Cc1ccccc1)c1ccccc1 (centres undefined)
inactive: dose: 50.0 mg/kg/injection, schedule: Q01DX001 (ip), vehicle: saline 97 % of control | [16] 106 % of control | [17] 101 % of control

OCC(Cc1ccccc1)N1CCCCC1 (centres undefined)
inactive: [18] 109 % of control | [19] 96 % of control | [20] 96 % of control | [21] 96 % of control | dose: 80.0 mg/kg/injection, schedule: Q01DX001 (ip), vehicle: saline 96 % of control

CCCCCCCCCC(=O)N/N=C/c1ccco1
inactive: [10] 87 % of control | [11] 99 % of control

COC(=O)c1c2ccccc2[n+](C)c2ccccc12
inactive: [4] 96 % of control | [5] 100 % of control | [6] 102 % of control

O=C1N(c2ccccc2)P(Cl)(Cl)(Cl)N1c1ccccc1
inactive: [13] 93 % of control | [14] 110 % of control | [15] 93 % of control

CC(=O)OCC1OC(OC(C)=O)C(O)C(OC(C)=O)C1OC(C)=O (centres undefined)
inactive: dose: 100.0 mg/kg/injection, schedule: Q01DX001 (ip), vehicle: Klucel (hydroxypropylcellulose) (HPC) 113 % of control | dose: 200.0 mg/kg/injection, schedule: Q01DX001 (ip), vehicle: Klucel (hydroxypropylcellulose) (HPC) 102 % of control | dose: 400.0 mg/kg/injection, schedule: Q01DX001 (ip), vehicle: Klucel (hydroxypropylcellulose) (HPC) 117 % of control

NC(=O)c1ncc(-c2ccc(Cl)cc2)[nH]c1=O
inactive: [22] 91 % of control | [23] 97 % of control | dose: 400.0 mg/kg/injection, schedule: Q01DX009 (ip), vehicle: saline with Tween-80 97 % of control

CN(C)CCOC(=O)C1C2CC3OC(=O)C1C3C2 (centres undefined)
inactive: [7] 96 % of control | [8] 104 % of control | [9] 104 % of control

O=c1[nH]ncc(Cl)c1Cl
inactive: [1] 92 % of control | [2] 95 % of control | [3] 106 % of control | [22] 87 % of control | [23] 87 % of control

COc1cc([N+](=O)[O-])ccc1NC(=O)Nc1cc(Cl)c(Cl)cc1C
inactive: [10] 94 % of control | [11] 105 % of control | [12] 91 % of control

O=C(OC1CSC(OC(=O)c2ccccc2)CS1)c1ccccc1 (centres undefined)
inactive: dose: 100.0 mg/kg/injection, schedule: Q04DX002 (ip), vehicle: saline with Tween-80 95 % of control | dose: 200.0 mg/kg/injection, schedule: Q04DX002 (ip), vehicle: saline with Tween-80 95 % of control | dose: 400.0 mg/kg/injection, schedule: Q04DX002 (ip), vehicle: saline with Tween-80 91 % of control

COC(=O)c1ccc2ccccc2n1
inactive: dose: 37.5 mg/kg/injection, schedule: Q04DX003 (ip), vehicle: saline 112 % of control | dose: 75.0 mg/kg/injection, schedule: Q01DX001 (ip), vehicle: saline 112 % of control | dose: 75.0 mg/kg/injection, schedule: Q04DX003 (ip), vehicle: saline 93 % of control | dose: 150.0 mg/kg/injection, schedule: Q01DX001 (ip), vehicle: saline 86 % of control | dose: 150.0 mg/kg/injection, schedule: Q04DX003 (ip), vehicle: saline 93 % of control

CC(=O)OC(OC(C)=O)c1ccccc1
inactive: [13] 106 % of control | [14] 110 % of control | [15] 103 % of control

CCOc1ccc(N=Nc2c(C)nn(C(N)=S)c2-c2ccccc2)cc1
inactive: [19] 103 % of control | [20] 94 % of control | [21] 88 % of control

CCN(Cc1ccccc1)C(=S)[S-].CCN(Cc1ccccc1)C(=S)[S-].[Zn]
inactive: [7] 91 % of control | [8] 94 % of control | [9] 89 % of control

COc1ccc(OC(=O)Nc2cc(Cl)ccc2C)cc1
inactive: [10] 94 % of control | [11] 91 % of control | [12] 94 % of control

CCC1CCCCN1C (centres undefined)
inactive: dose: 25.0 mg/kg/injection, schedule: Q01DX009 (ip), vehicle: acetone 96 % of control | dose: 50.0 mg/kg/injection, schedule: Q01DX009 (ip), vehicle: acetone 94 % of control | dose: 100.0 mg/kg/injection, schedule: Q01DX009 (ip), vehicle: acetone 100 % of control

CCCCCCCCCCCCCCC
inactive: dose: 100.0 mg/kg/injection, schedule: Q01DX001 (ip), vehicle: saline with Tween-80 107 % of control | dose: 200.0 mg/kg/injection, schedule: Q01DX001 (ip), vehicle: saline with Tween-80 95 % of control | dose: 400.0 mg/kg/injection, schedule: Q01DX001 (ip), vehicle: saline with Tween-80 91 % of control

CC(=O)NNC(=O)Nc1cccc(C(F)(F)F)c1
inactive: [3] 94 % of control | [22] 91 % of control

CCCCCCCCCC[Se]C#N
inactive: [18] 112 % of control | [19] 114 % of control

C=CCOc1ccnc(OCC=C)n1
inactive: dose: 100.0 mg/kg/injection, schedule: Q01DX009 (ip), vehicle: saline 108 % of control | [7] 105 % of control | dose: 200.0 mg/kg/injection, schedule: Q01DX009 (ip), vehicle: saline 101 % of control | [8] 102 % of control | dose: 400.0 mg/kg/injection, schedule: Q01DX009 (ip), vehicle: saline 87 % of control | [9] 105 % of control
